The text below walks through data of patent US20080171740A1, “Chemical Compounds” (SMITHKLINE BEECHAM CORPORATION, priority 2004, published 2008).

Where two headings read alike, the source gives them in different places.

The test system of one data set is T-tropic HIV. To be noted: patients that are dual tropic or where only the T-tropic form is present; cited from earlier work.
In a further data set the target is T1, CXCR4 receptor (Homo sapiens, UniProt P61073).
T1 construct: expressed in transfected cells; host or cells: HEK-293 cells (stably expressing human macrophage scavenging receptor) transduced with human CXCR4 BacMam and Gqi5 BacMam
Briefly: Functional FLIPR assay (block of SDF-1 alpha induced [Ca2+]i change). Type of data set: cell-based. Conditions: HEK-293 cells with human CXCR4 BacMam and Gqi5 BacMam; antagonism of SDF-1 alpha; read-out: Functional assay (pIC50) (converted).

The test system of data set [1] is HIV-1 IIIB strain, T-tropic (CXCR4 utilizing). Briefly: HOS HIV-1 infectivity assay. Type of data set: cell-based. The method in brief: (§1)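 Engineered HOS reporter cells in 2% FCS medium received compound 1 h ahead of HIV-1 (~2 million RLU/well). Cultures ran 96 h at 37 °C before luciferase quantitation; parallel uninfected wells were scored for viability by CellTiter-Glo.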

Data set [2] is described as follows: Compound cytotoxicity in the absence of virus (CellTiter-Glo). Type of data set: cell-based. Conditions: human; non-infected HOS cultures, cell viability; read-out: Cytotox (pIC50) (converted). The method in brief:
as §1

Data set [3] concerns HIV-1 gp160 (HXB2 strain) mediated fusion with HOS (hCXCR4/hCCR5/hCD4/pHIV-LTR-luciferase) cells. The data set is described as follows: Cell/cell fusion assay (HEK-293 expressing HIV-1 tat, rev, gp160 with HOS hCXCR4/hCCR5/hCD4/pHIV-LTR-luciferase cells). Type of data set: cell-based. To be noted: Homo sapiens, HEK293; luciferase readout after 24 h; read-out: Fusion assay (pIC50) (converted). The method in brief:
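HEK-293 cells BacMam-transduced (MOI 10 each, 2 mM butyric acid, 24 h) to express HIV-1 tat, rev and HXB2 gp160 were mixed with HOS hCXCR4/hCCR5/hCD4 LTR-luciferase cells, 20,000 each per well, on DMSO compound spots in 2% FCS media. Fusion read as luciferase luminescence after 24 h at 37 °C.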

Where [4] appears, read: Human immunodeficiency virus 1, IIIB, HOS HIV anti-infectivity assay, strain not named in Table 2, read-out: Activity Level.
[5] abbreviates: Human immunodeficiency virus 1, HOS cells, HIV-1 IIIB, 96 h, luciferase, read-out: HOS (3B).

T1 sequence (P61073 whole entry): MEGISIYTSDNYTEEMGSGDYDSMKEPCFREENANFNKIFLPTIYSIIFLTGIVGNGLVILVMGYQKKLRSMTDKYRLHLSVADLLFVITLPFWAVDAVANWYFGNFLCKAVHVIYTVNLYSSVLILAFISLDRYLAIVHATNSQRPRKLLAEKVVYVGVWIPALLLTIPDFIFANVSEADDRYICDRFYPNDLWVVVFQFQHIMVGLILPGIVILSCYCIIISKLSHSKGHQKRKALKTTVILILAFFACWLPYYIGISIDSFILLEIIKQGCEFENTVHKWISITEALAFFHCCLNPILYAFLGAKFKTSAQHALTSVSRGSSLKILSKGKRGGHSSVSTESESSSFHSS

As for `c1cc(CN2CCCNCCNCCCNCC2)ccc1CN1CCCNCCNCCCNCC1` [AMD-3100], in the data set with T-tropic HIV, the “T-tropic HIV viral load” value is listed as “significantly reduce T-tropic HIV viral load”.

For the molecule `NCCCCN(Cc1cn2c(N3CCCC3)cccc2n1)C1CCCc2cccnc21` (stereo not shown) [Example 21, N-{[5-(1-Pyrrolidinyl)imidazo[1,2-a]pyridin-2-yl]methyl}-N-(5,6,7,8-tetrahydro-8-quinolinyl)-1,4-butanediamine], the IC50 on CXCR4 receptor is 20 nM; in data set [1] (Human immunodeficiency virus 1, IIIB, HOS, 96 h, read-out: HOS (3B) (μM)), 0.038 µM; in data set [1] (Human immunodeficiency virus 1, IIIB, read-out: Activity Level) it was below 0.1 µM; in data set [3] it was 102 nM. The IC50 at 96 h in data set [2] was above 100000 nM.

As for `NCCCCN(Cc1cn2c(N3CCNCC3)cccc2n1)C1CCCc2cccnc21` (stereo not shown) [Example 22, N-{[5-(1-piperazinyl)imidazo[1,2-a]pyridin-2-yl]methyl}-N-(5,6,7,8-tetrahydro-8-quinolinyl)-1,4-butanediamine], the IC50 was 2.88 nM at CXCR4 receptor, below 0.1 µM in data set [1] (setting [4]), 0.0022 µM in data set [1] (setting [5]) and 2.82 nM in data set [3]. Further, in data set [2], the IC50 at 96 h is above 100000 nM.

As to `NCCCCN(Cc1cn2c(N3CCOCC3)cccc2n1)C1CCCc2cccnc21` (stereo not shown) [Example 23, N-{[5-(4-Morpholinyl)imidazo[1,2-a]pyridin-2-yl]methyl}-N-(5,6,7,8-tetrahydro-8-quinolinyl)-1,4-butanediamine], the IC50 is 158 nM at CXCR4 receptor, below 0.1 µM in data set [1] (setting [4]), 0.077 µM in data set [1] (setting [5]) and 324 nM in data set [3]. Further, the IC50 at 96 h in data set [2] was above 100000 nM.

With `CN1CCN(c2cccc3nc(CN(CCCCN)C4CCCc5cccnc54)cn23)CC1` (stereo not shown) [Example 24, N-{[5-(4-Methyl-1-piperazinyl)imidazo[1,2-a]pyridin-2-yl]methyl}-N-(5,6,7,8-tetrahydro-8-quinolinyl)-1,4-butanediamine], the IC50 was 41.7 nM on CXCR4 receptor, below 0.1 µM in data set [1] (setting [4]), 0.0036 µM in data set [1] (setting [5]) and 4.9 nM in data set [3]. Also, the IC50 at 96 h in data set [2] was above 100000 nM.

Take `COc1cccc2nc(CN(CCCCN)C3CCCc4cccnc43)cn12` (stereo not shown) [Example 25, N-{[5-(Methyloxy)imidazo[1,2-a]pyridin-2-yl]methyl}-N-(5,6,7,8-tetrahydro-8-quinolinyl)-1,4-butanediamine]: the IC50 at CXCR4 receptor was 10.2 nM; in data set [1] (setting [4]) it was below 0.1 µM; in data set [1] (setting [5]) it was 0.015 µM; in data set [3], 123 nM. The IC50 at 96 h in data set [2] is above 100000 nM.

For `NCCCCN(Cc1cn2c(N)cccc2n1)C1CCCc2cccnc21` (stereo not shown) [Example 26, N-[(5-Aminoimidazo[1,2-a]pyridin-2-yl)methyl]-N-(5,6,7,8-tetrahydro-8-quinolinyl)-1,4-butanediamine], the IC50 on CXCR4 receptor was 11.5 nM; in data set [1] (setting [4]), below 0.1 µM; in data set [1] (setting [5]), 0.014 µM; in data set [3] it was 39.8 nM. The IC50 at 96 h in data set [2] was above 100000 nM.
